From ChEMBL document CHEMBL1201862, “PubChem BioAssay data set” (2004)
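Briefly, cells in 96-well plates were exposed to five compound concentrations for 48 h, and endpoints were estimated by linear interpolation. At the GI50, growth is halved.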 Calls of active or inactive are those of the source. Cut-off read from the data, not from the text of the source: active = GI50 up to about 1.1 µM and inactive = higher.

Tests used:
Assay in all cases: growth of human tumour cells (NCI), 48 h
ACHN = system: ACHN
CAKI-1 = system: CAKI-1
CCRF-CEM = system: CCRF-CEM
COLO 205 = system: COLO 205
DU-145 = system: DU-145
EKVX = system: EKVX
HCC 2998 = system: HCC 2998
HCT-116 = system: HCT-116
HCT-15 = system: HCT-15
HL-60 = system: HL-60
HOP-62 = system: HOP-62
HOP-92 = system: HOP-92
HT-29 = system: HT-29
Hs-578T = system: Hs-578T
IGROV-1 = system: IGROV-1
K562 = system: K562
KM12 = system: KM12
LOX IMVI = system: LOX IMVI
M14 = system: M14
MCF7 = system: MCF7
MDA-MB-231 = system: MDA-MB-231
MDA-MB-435 = system: MDA-MB-435
MDA-N = system: MDA-N
MOLT-4 = system: MOLT-4
Malme-3M = system: Malme-3M
NCI-H226 = system: NCI-H226
NCI-H23 = system: NCI-H23
NCI-H460 = system: NCI-H460
NCI-H522 = system: NCI-H522
NCI/ADR-RES = system: NCI/ADR-RES
OVCAR-3 = system: OVCAR-3
OVCAR-4 = system: OVCAR-4
OVCAR-5 = system: OVCAR-5
OVCAR-8 = system: OVCAR-8
PC-3 = system: PC-3
RPMI-8226 = system: RPMI-8226
RXF 393 = system: RXF 393
SF-268 = system: SF-268
SF-295 = system: SF-295
SF-539 = system: SF-539
SK-MEL-28 = system: SK-MEL-28
SK-MEL-5 = system: SK-MEL-5
SK-OV-3 = system: SK-OV-3
SN12C = system: SN12C
SNB-19 = system: SNB-19
SR = system: SR
SW-620 = system: SW-620
T47D = system: T47D
TK-10 = system: TK-10
U-251 = system: U-251
UACC-257 = system: UACC-257
UACC-62 = system: UACC-62
786-0 = system: 786-0
A498 = system: A498
A549 = system: A549
SK-MEL-2 = system: SK-MEL-2
SNB-75 = system: SNB-75
UO-31 = system: UO-31

Measured: GI50

Cc1coc2c1C[C@@]1(C)[C@H](CCC[C@@H]1C)[C@H]2O
inactive: ACHN 24.7 µM | CAKI-1 44.5 µM | CCRF-CEM 28.4 µM | COLO 205 41.6 µM | DU-145 11.9 µM | EKVX 58.7 µM | HCC 2998 11.4 µM | HCT-116 29.6 µM | HL-60 16.4 µM | HOP-62 29.4 µM | HOP-92 25.9 µM | HT-29 33.3 µM | Hs-578T 71.1 µM | IGROV-1 19.8 µM | K562 28.4 µM | KM12 > 100 µM | LOX IMVI 56.4 µM | M14 60.4 µM | MCF7 52.7 µM | MDA-MB-231 20.7 µM | MDA-MB-435 30.1 µM | MDA-N 49.9 µM | MOLT-4 18 µM | Malme-3M 18.8 µM | NCI-H226 15.5 µM | NCI-H23 36.8 µM | NCI-H460 > 100 µM | NCI-H522 22.4 µM | NCI/ADR-RES 24.3 µM | OVCAR-3 22.6 µM | OVCAR-4 28.1 µM | OVCAR-5 37.2 µM | OVCAR-8 35.4 µM | PC-3 19.1 µM | RPMI-8226 18.1 µM | RXF 393 20.8 µM | SF-268 16.9 µM | SF-295 30.9 µM | SF-539 25.1 µM | SK-MEL-28 29.5 µM | SK-MEL-5 15.1 µM | SK-OV-3 > 100 µM | SN12C 15.6 µM | SNB-19 > 100 µM | SR 14.6 µM | SW-620 37.7 µM | T47D 19.9 µM | TK-10 54 µM | U-251 42.4 µM | UACC-257 31.8 µM | UACC-62 69.5 µM
36.2 µM: HCT-15

C=C(Br)CN(C(C)=O)C1CCCCC1
inactive: 786-0 > 100 µM | A498 > 100 µM | A549 > 100 µM | ACHN > 100 µM | CAKI-1 > 100 µM | CCRF-CEM > 100 µM | COLO 205 > 100 µM | DU-145 > 100 µM | EKVX > 100 µM | HCC 2998 > 100 µM | HCT-116 > 100 µM | HL-60 > 100 µM | HOP-62 > 100 µM | HT-29 > 100 µM | Hs-578T > 100 µM | IGROV-1 > 100 µM | K562 > 100 µM | KM12 > 100 µM | LOX IMVI > 100 µM | M14 > 100 µM | MCF7 > 100 µM | MDA-MB-231 > 100 µM | MDA-MB-435 > 100 µM | MDA-N > 100 µM | MOLT-4 > 100 µM | Malme-3M > 100 µM | NCI-H226 > 100 µM | NCI-H23 > 100 µM | NCI-H460 > 100 µM | NCI-H522 > 100 µM | NCI/ADR-RES > 100 µM | OVCAR-3 > 100 µM | OVCAR-4 > 100 µM | OVCAR-5 > 100 µM | OVCAR-8 > 100 µM | PC-3 > 100 µM | RPMI-8226 > 100 µM | RXF 393 > 100 µM | SF-268 > 100 µM | SF-295 > 100 µM | SF-539 > 100 µM | SK-MEL-28 > 100 µM | SK-MEL-2 > 100 µM | SK-MEL-5 > 100 µM | SK-OV-3 > 100 µM | SN12C > 100 µM | SNB-19 > 100 µM | SNB-75 > 100 µM | SR > 100 µM | SW-620 > 100 µM | T47D > 100 µM | TK-10 > 100 µM | U-251 > 100 µM | UACC-257 > 100 µM | UACC-62 > 100 µM | UO-31 > 100 µM
> 100 µM: HCT-15
